Experimental data: PubChem BioAssay AID1259407 (Chemical Carcinogenesis Research Information System (CCRIS), 2018)
Activity calls are given as the source filed them. No rule for the calls is given here.

Tested on: CCRIS mutagenicity, Ames/micronucleus/aberration tests
Experiment: CCRIS mutagenicity studies

C=CC(=O)NCO
mutagenic call (Test System: AMES SALMONELLA TYPHIMURIUM, Strain/Indicator: TA97, Metabolic Activation: HAMSTER, LIVER, S-9, AROCLOR 1254 (10%), Method: PREINCUBATION): inactive; negative | mutagenic call (Test System: AMES SALMONELLA TYPHIMURIUM, Strain/Indicator: TA97, Metabolic Activation: HAMSTER, LIVER, S-9, AROCLOR 1254 (10 OR 30%), Method: PREINCUBATION): inactive; negative | mutagenic call (Test System: AMES SALMONELLA TYPHIMURIUM, Strain/Indicator: TA97, Metabolic Activation: HAMSTER, LIVER, S-9, AROCLOR 1254 (30%), Method: PREINCUBATION): inactive; negative | mutagenic call (Test System: AMES SALMONELLA TYPHIMURIUM, Strain/Indicator: TA97, Metabolic Activation: NONE, Method: PREINCUBATION): inactive; negative | mutagenic call (Test System: AMES SALMONELLA TYPHIMURIUM, Strain/Indicator: TA97, Metabolic Activation: RAT, LIVER, S-9, AROCLOR 1254 (10% OR 30%), Method: PREINCUBATION): inactive; negative | mutagenic call (Test System: AMES SALMONELLA TYPHIMURIUM, Strain/Indicator: TA97, Metabolic Activation: RAT, LIVER, S-9, AROCLOR 1254 (10 OR 30%), Method: PREINCUBATION): inactive; negative | mutagenic call (Test System: AMES SALMONELLA TYPHIMURIUM, Strain/Indicator: TA98, Metabolic Activation: HAMSTER, LIVER, S-9, AROCLOR 1254 (10% OR 30%), Method: PREINCUBATION): inactive; negative | mutagenic call (Test System: AMES SALMONELLA TYPHIMURIUM, Strain/Indicator: TA98, Metabolic Activation: HAMSTER, LIVER, S-9, AROCLOR 1254 (10 OR 30%), Method: PREINCUBATION): inactive; negative | mutagenic call (Test System: AMES SALMONELLA TYPHIMURIUM, Strain/Indicator: TA98, Metabolic Activation: NONE, Method: PREINCUBATION): inactive; negative | mutagenic call (Test System: AMES SALMONELLA TYPHIMURIUM, Strain/Indicator: TA98, Metabolic Activation: RAT, LIVER, S-9, AROCLOR 1254 (10% OR 30%), Method: PREINCUBATION): inactive; negative | mutagenic call (Test System: AMES SALMONELLA TYPHIMURIUM, Strain/Indicator: TA98, Metabolic Activation: RAT, LIVER, S-9, AROCLOR 1254 (10 OR 30%), Method: PREINCUBATION): inactive; negative | mutagenic call (Test System: AMES SALMONELLA TYPHIMURIUM, Strain/Indicator: TA98, Metabolic Activation: RAT, LIVER, S-9, PHENOBARBITAL AND BETA-NAPHTHOFLAVONE, Method: PREINCUBATION): inactive; negative | mutagenic call (Test System: AMES SALMONELLA TYPHIMURIUM, Strain/Indicator: TA100, Metabolic Activation: HAMSTER, LIVER, S-9, AROCLOR 1254 (10% OR 30%), Method: PREINCUBATION): inactive; negative | mutagenic call (Test System: AMES SALMONELLA TYPHIMURIUM, Strain/Indicator: TA100, Metabolic Activation: HAMSTER, LIVER, S-9, AROCLOR 1254 (10 OR 30%), Method: PREINCUBATION): inactive; negative | mutagenic call (Test System: AMES SALMONELLA TYPHIMURIUM, Strain/Indicator: TA100, Metabolic Activation: NONE, Method: PREINCUBATION): inactive; negative | mutagenic call (Test System: AMES SALMONELLA TYPHIMURIUM, Strain/Indicator: TA100, Metabolic Activation: RAT, LIVER, S-9, AROCLOR 1254 (10% OR 30%), Method: PREINCUBATION): inactive; negative | mutagenic call (Test System: AMES SALMONELLA TYPHIMURIUM, Strain/Indicator: TA100, Metabolic Activation: RAT, LIVER, S-9, AROCLOR 1254 (10 OR 30%), Method: PREINCUBATION): inactive; negative | mutagenic call (Test System: AMES SALMONELLA TYPHIMURIUM, Strain/Indicator: TA100, Metabolic Activation: RAT, LIVER, S-9, PHENOBARBITAL AND BETA-NAPHTHOFLAVONE, Method: PREINCUBATION): inactive; negative | mutagenic call (Test System: AMES SALMONELLA TYPHIMURIUM, Strain/Indicator: TA102, Metabolic Activation: NONE, Method: PREINCUBATION): inactive; negative | mutagenic call (Test System: AMES SALMONELLA TYPHIMURIUM, Strain/Indicator: TA102, Metabolic Activation: RAT, LIVER, S-9, PHENOBARBITAL AND BETA-NAPHTHOFLAVONE, Method: PREINCUBATION): inactive; negative | mutagenic call (Test System: AMES SALMONELLA TYPHIMURIUM, Strain/Indicator: TA104, Metabolic Activation: NONE, Method: PREINCUBATION): inactive; negative | mutagenic call (Test System: AMES SALMONELLA TYPHIMURIUM, Strain/Indicator: TA104, Metabolic Activation: RAT, LIVER, S-9, PHENOBARBITAL AND BETA-NAPHTHOFLAVONE, Method: PREINCUBATION): inactive; negative | mutagenic call (Test System: AMES SALMONELLA TYPHIMURIUM, Strain/Indicator: TA1535, Metabolic Activation: HAMSTER, LIVER, S-9, AROCLOR 1254 (10% OR 30%), Method: PREINCUBATION): inactive; negative | mutagenic call (Test System: AMES SALMONELLA TYPHIMURIUM, Strain/Indicator: TA1535, Metabolic Activation: HAMSTER, LIVER, S-9, AROCLOR 1254 (10 OR 30%), Method: PREINCUBATION): inactive; negative | mutagenic call (Test System: AMES SALMONELLA TYPHIMURIUM, Strain/Indicator: TA1535, Metabolic Activation: NONE, Method: PREINCUBATION): inactive; negative | mutagenic call (Test System: AMES SALMONELLA TYPHIMURIUM, Strain/Indicator: TA1535, Metabolic Activation: RAT, LIVER, S-9, AROCLOR 1254 (10% OR 30%), Method: PREINCUBATION): inactive; negative | mutagenic call (Test System: AMES SALMONELLA TYPHIMURIUM, Strain/Indicator: TA1535, Metabolic Activation: RAT, LIVER, S-9, AROCLOR 1254 (10 OR 30%), Method: PREINCUBATION): inactive; negative | mutagenic call (Test System: AMES SALMONELLA TYPHIMURIUM, Strain/Indicator: TA1535, Metabolic Activation: RAT, LIVER, S-9, PHENOBARBITAL AND BETA-NAPHTHOFLAVONE, Method: PREINCUBATION): inactive; negative | mutagenic call (Test System: AMES SALMONELLA TYPHIMURIUM, Strain/Indicator: TA1537, Metabolic Activation: NONE, Method: PREINCUBATION): inactive; negative | mutagenic call (Test System: AMES SALMONELLA TYPHIMURIUM, Strain/Indicator: TA1537, Metabolic Activation: RAT, LIVER, S-9, PHENOBARBITAL AND BETA-NAPHTHOFLAVONE, Method: PREINCUBATION): inactive; negative | mutagenic call (Test System: E. COLI, Strain/Indicator: WP2UVRA/PKM101, Metabolic Activation: NONE, Method: PREINCUBATION): inactive; negative | mutagenic call (Test System: E. COLI, Strain/Indicator: WP2UVRA/PKM101, Metabolic Activation: RAT, LIVER, S-9, PHENOBARBITAL AND BETA-NAPHTHOFLAVONE, Method: PREINCUBATION): inactive; negative | mutagenic call (Test System: E. COLI, Strain/Indicator: WP2UVRA, Metabolic Activation: NONE, Method: PREINCUBATION): inactive; negative | mutagenic call (Test System: E. COLI, Strain/Indicator: WP2UVRA, Metabolic Activation: RAT, LIVER, S-9, PHENOBARBITAL AND BETA-NAPHTHOFLAVONE, Method: PREINCUBATION): inactive; negative

Nc1cccc2cc3c(nc12)CCCC3
mutagenic call (Test System: AMES SALMONELLA TYPHIMURIUM, Strain/Indicator: TA97A, Metabolic Activation: NONE, Method: STANDARD PLATE): active; positive | mutagenic call (Test System: AMES SALMONELLA TYPHIMURIUM, Strain/Indicator: TA97A, Metabolic Activation: RAT, LIVER, S-9, AROCLOR 1254, Method: STANDARD PLATE): active; positive

CN(C)CCCn1cc[n+](C)c1/C=N/O
mutagenic call (Test System: AMES SALMONELLA TYPHIMURIUM, Strain/Indicator: TA97, Metabolic Activation: NONE, Method: STANDARD PLATE): inactive; negative | mutagenic call (Test System: AMES SALMONELLA TYPHIMURIUM, Strain/Indicator: TA97, Metabolic Activation: RAT, LIVER, S-9, Method: STANDARD PLATE): inactive; negative | mutagenic call (Test System: AMES SALMONELLA TYPHIMURIUM, Strain/Indicator: TA100, Metabolic Activation: NONE, Method: STANDARD PLATE): inactive; negative | mutagenic call (Test System: AMES SALMONELLA TYPHIMURIUM, Strain/Indicator: TA100, Metabolic Activation: RAT, LIVER, S-9, Method: STANDARD PLATE): inactive; negative | mutagenic call (Test System: AMES SALMONELLA TYPHIMURIUM, Strain/Indicator: TA104, Metabolic Activation: NONE, Method: STANDARD PLATE): inactive; negative | mutagenic call (Test System: AMES SALMONELLA TYPHIMURIUM, Strain/Indicator: TA104, Metabolic Activation: RAT, LIVER, S-9, Method: STANDARD PLATE): inactive; negative | mutagenic call (Test System: AMES SALMONELLA TYPHIMURIUM, Strain/Indicator: TA1537, Metabolic Activation: NONE, Method: STANDARD PLATE): inactive; negative | mutagenic call (Test System: AMES SALMONELLA TYPHIMURIUM, Strain/Indicator: TA1537, Metabolic Activation: RAT, LIVER, S-9, Method: STANDARD PLATE): inactive; negative | mutagenic call (Test System: AMES SALMONELLA TYPHIMURIUM, Strain/Indicator: TA1538, Metabolic Activation: NONE, Method: STANDARD PLATE): inactive; negative | mutagenic call (Test System: AMES SALMONELLA TYPHIMURIUM, Strain/Indicator: TA1538, Metabolic Activation: RAT, LIVER, S-9, Method: STANDARD PLATE): inactive; negative
